# Laboratory results taken from patent US20140377870A1 (priority 2010, published 2014).
# Key:
# ES cells = settings: cited from earlier work
# [1] = test system: cells not expressing the HSV-TK gene; settings: cited from earlier work
# VACVΔE3L::GyrB-PKR = assay type: cell-based, vaccinia virus
# VACVΔE3L = assay type: cell-based, vaccinia virus
# VACVΔE3L::GyrB-PKRK296H = assay type: cell-based, vaccinia virus
# VACVΔJ2R::GyrB-PKR = assay type: cell-based, vaccinia virus
Compound,totipotency of ES cells (ES cells),nonspecific toxicity [1],coumermycin concentration at which sensitivity of the virus was observed (VACVΔE3L::GyrB-PKR),sensitivity of virus to coumermycin (VACVΔE3L),sensitivity of virus to coumermycin (VACVΔE3L::GyrB-PKRK296H),sensitivity to coumermycin compared to untreated cells (VACVΔJ2R::GyrB-PKR)
"Nc1nc(O)c2ncn(COC(CO)CO)c2n1 [GCV, ganciclovir]",reduce the totipotency,nonspecific toxicity,–,–,–,–
Coumermycin A1,–,–,greater than 5 ng/ml,resistant to all doses,resistant to all doses,"at least 100,000 fold"
